Experimental data: patent US9695155B2, “Herbicidal substituted pyrimidinyloxy benzene compounds” (E. I. DU PONT DE NEMOURS AND COMPANY, priority 2013, dated 2017)

Tests used:
chickweed = test: Test C postemergence; format: in vivo, Stellaria media; details: for Chickweed plant response rating / Plant response rating, Chickweed: scale 0 to 100 (0 no effect, 100 complete control)
Outline: (§1)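 Preemergence: seeds sown in a loam soil–sand blend and sprayed with test chemical in a non-phytotoxic solvent mixture containing surfactant. Postemergence: plants at 2 to 18 cm (1- to 4-leaf stage) in peat-based medium, treated with the same formulation. Greenhouse 13 to 15 days, then visual rating 0 (no effect) to 100 (complete control).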

morningglory = test: Test A postemergence; format: in vivo, Ipomoea spp.; details: 0 to 100 scale where 0 is no effect and 100 is complete control
Outline: (§2)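 Injury scores run from 0, no effect, to 100, complete control, judged by eye against untreated plants roughly 10 days after treatment. Chemicals carried a surfactant in a non-phytotoxic solvent and went onto loam–sand soil preemergence or onto one- to two-leaf seedlings postemergence.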

barnyardgrass [1] = test: Test C postemergence; format: in vivo, Echinochloa crus-galli; details: for Barnyardgrass plant response rating / Plant response rating, Barnyardgrass: scale 0 to 100 (0 no effect, 100 complete control)
Outline: as §1

pigweed [2] = test: Test A postemergence; format: in vivo, Amaranthus retroflexus; details: 0 to 100 scale where 0 is no effect and 100 is complete control
Outline: as §2

oilseed rape = test: Test C postemergence; format: in vivo, Brassica napus; details: for Plant response rating, Oilseed Rape / Oilseed Rape plant response rating: scale 0 to 100 (0 no effect, 100 complete control)
Outline: as §1

wheat, winter = test: Test C postemergence; format: in vivo, Triticum aestivum; details: for Plant response rating, Wheat / Wheat plant response rating: scale 0 to 100 (0 no effect, 100 complete control)
Outline: as §1

corn = test: Test C postemergence; format: in vivo, Zea mays; details: for Corn plant response rating / Plant response rating, Corn: scale 0 to 100 (0 no effect, 100 complete control)
Outline: as §1

sedge, umbrella = test: Test B flooded paddy test; format: in vivo, Cyperus difformis; details: Flood, 250 g ai/ha; 0 to 100 scale where 0 is no effect and 100 is complete control
Outline: (§3)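 Plants were grown to the 2-leaf stage, then pots were flooded to 3 cm above the soil and compounds were applied directly into the paddy water. That depth was held throughout, and after 13 to 15 days in the greenhouse injury was rated visually against controls on a 0–100 scale (0 no effect, 100 complete control).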

barnyardgrass [3] = test: Test B flooded paddy test; format: in vivo, Echinochloa crus-galli; details: Flood, 250 g ai/ha; 0 to 100 scale where 0 is no effect and 100 is complete control
Outline: as §3

velvetleaf = test: Test A preemergence; format: in vivo, Abutilon theophrasti; details: for Velvetleaf plant response rating: 500 g ai/ha
Outline: as §2

Heteranthera limosa = test: Test B flooded paddy test; format: in vivo; details: Flood, 250 g ai/ha; 0 to 100 scale where 0 is no effect and 100 is complete control
Outline: as §3

waterhemp = test: Test C postemergence; format: in vivo, Amaranthus rudis; details: for Plant response rating, Waterhemp / Waterhemp plant response rating: scale 0 to 100 (0 no effect, 100 complete control)
Outline: as §1

johnsongrass = test: Test C postemergence; format: in vivo, Sorghum halepense; details: for Johnsongrass plant response rating / Plant response rating, Johnsongrass: scale 0 to 100 (0 no effect, 100 complete control)
Outline: as §1

pigweed [4] = test: Test A preemergence; format: in vivo, Amaranthus retroflexus; details: for Pigweed plant response rating: 500 g ai/ha
Outline: as §2

large (Lg) crabgrass = test: Test C postemergence; format: in vivo, Digitaria sanguinalis; details: for Crabgrass, Large plant response rating / Plant response rating, Crabgrass, Large: scale 0 to 100 (0 no effect, 100 complete control)
Outline: as §1

[5] = 16 g ai/ha, postemergence, visual rating, 13 to 15 days
[6] = Postemergence, 31 g ai/ha, 13 to 15 days
[7] = 125 g ai/ha, 0 to 100 scale where 0 is no effect and 100 is complete control
[8] = 16 g ai/ha, postemergence, 0 is no effect, 100 is complete control
[9] = 31 g ai/ha, postemergence, visual rating, 13 to 15 days
[10] = 125 g ai/ha, postemergence, visual rating
[11] = 0 to 100 scale where 0 is no effect and 100 is complete control

## Fc1cnc(Oc2cccc(C(F)F)c2-n2cc(Cl)cn2)nc1 [Compound 94]
chickweed; [5]
  Chickweed plant response rating: 10
chickweed; 125 g ai/ha, postemergence
  Plant response rating (0 to 100), Chickweed: 70
chickweed; [6]
  Plant response rating, Chickweed: 60
chickweed; Postemergence, 62 g ai/ha
  Plant response rating, Chickweed: 60
morningglory; 125 g ai/ha
  Plant response rating, Morningglory: 80
morningglory; 500 g ai/ha
  Plant response rating, Morningglory: 100
Barnyardgrass [1]; [5]
  Barnyardgrass plant response rating: 10
Barnyardgrass [1]; 125 g ai/ha, postemergence
  Plant response rating (0 to 100), Barnyardgrass: 10
Barnyardgrass [1]; [6]
  Plant response rating, Barnyardgrass: 10
Barnyardgrass [1]; Postemergence, 62 g ai/ha
  Plant response rating, Barnyardgrass: 10
Pigweed [2]; 125 g ai/ha
  Plant response rating, Pigweed: 100
Pigweed [2]; 500 g ai/ha
  Plant response rating, Pigweed: 100
Oilseed rape; 125 g ai/ha, postemergence
  Plant response rating (0 to 100), Oilseed Rape: 80
Oilseed rape; [6]
  Plant response rating, Oilseed Rape: 50
Oilseed rape; Postemergence, 62 g ai/ha
  Plant response rating, Oilseed Rape: 50
wheat, winter; 125 g ai/ha, postemergence
  Plant response rating (0 to 100), Wheat: 0
wheat, winter; [6]
  Plant response rating, Wheat: 0
wheat, winter; Postemergence, 62 g ai/ha
  Plant response rating, Wheat: 0
corn; [5]
  Corn plant response rating: 5
corn; 125 g ai/ha, postemergence
  Plant response rating (0 to 100), Corn: 5
corn; [6]
  Plant response rating, Corn: 5
corn; Postemergence, 62 g ai/ha
  Plant response rating, Corn: 35
sedge, umbrella
  Plant response rating, Sedge, Umbrella: 30
Barnyardgrass [3]
  Plant response rating, Barnyardgrass: 0
velvetleaf; [7]
  Plant response rating, Velvetleaf: 90
Heteranthera limosa
  Plant response rating, Ducksalad: 40
waterhemp; 125 g ai/ha, postemergence
  Plant response rating (0 to 100), Waterhemp: 70
waterhemp; [6]
  Plant response rating, Waterhemp: 80
waterhemp; Postemergence, 62 g ai/ha
  Plant response rating, Waterhemp: 75
johnsongrass; [5]
  Johnsongrass plant response rating: 5
johnsongrass; 125 g ai/ha, postemergence
  Plant response rating (0 to 100), Johnsongrass: 5
johnsongrass; [6]
  Plant response rating, Johnsongrass: 5
johnsongrass; Postemergence, 62 g ai/ha
  Plant response rating, Johnsongrass: 5
Pigweed [4]; [7]
  Plant response rating, Pigweed: 100
Pigweed [4]; 0 to 100 scale, 0 no effect, 100 complete control, approx. 10 days
  Pigweed plant response rating: 100
Large (Lg) crabgrass; [5]
  Crabgrass, Large plant response rating: 5
Large (Lg) crabgrass; 125 g ai/ha, postemergence
  Plant response rating (0 to 100), Crabgrass, Large: 10
Large (Lg) crabgrass; [6]
  Plant response rating, Crabgrass, Large: 5
Large (Lg) crabgrass; Postemergence, 62 g ai/ha
  Plant response rating, Crabgrass, Large: 10

## FC(F)c1cccc(Oc2ncc(Br)cn2)c1-n1cc(C(F)(F)F)cn1 [Compound 163]
chickweed; [8]
  Plant response rating (0 to 100), Chickweed: 40
chickweed; [9]
  Chickweed plant response rating: 80
chickweed; [10]
  Plant response rating, Chickweed: 95
chickweed; Postemergence, 62 g ai/ha
  Plant response rating, Chickweed: 80
morningglory; 125 g ai/ha
  Morningglory plant response rating: 90
morningglory; 500 g ai/ha
  Plant response rating, Morningglory: 100
Barnyardgrass [1]; [8]
  Plant response rating (0 to 100), Barnyardgrass: 5
Barnyardgrass [1]; [9]
  Barnyardgrass plant response rating: 5
Barnyardgrass [1]; [10]
  Plant response rating, Barnyardgrass: 5
Barnyardgrass [1]; Postemergence, 62 g ai/ha
  Plant response rating, Barnyardgrass: 5
Pigweed [2]; 125 g ai/ha
  Pigweed plant response rating: 100
Pigweed [2]; 500 g ai/ha
  Plant response rating, Pigweed: 100
Oilseed rape; [8]
  Plant response rating (0 to 100), Oilseed Rape: 45
Oilseed rape; [9]
  Oilseed Rape plant response rating: 30
Oilseed rape; [10]
  Plant response rating, Oilseed Rape: 80
Oilseed rape; Postemergence, 62 g ai/ha
  Plant response rating, Oilseed Rape: 60
wheat, winter; [8]
  Plant response rating (0 to 100), Wheat: 0
wheat, winter; [9]
  Wheat plant response rating: 0
wheat, winter; [10]
  Plant response rating, Wheat: 5
wheat, winter; Postemergence, 62 g ai/ha
  Plant response rating, Wheat: 0
corn; [8]
  Plant response rating (0 to 100), Corn: 5
corn; [9]
  Corn plant response rating: 5
corn; [10]
  Plant response rating, Corn: 10
corn; Postemergence, 62 g ai/ha
  Plant response rating, Corn: 10
sedge, umbrella
  Plant response rating, Sedge, Umbrella: 90
Barnyardgrass [3]
  Plant response rating, Barnyardgrass: 0
velvetleaf; 125 g ai/ha
  Velvetleaf plant response rating (0 to 100 scale): 20
velvetleaf; [11]
  Velvetleaf plant response rating: 100
Heteranthera limosa
  Plant response rating, Ducksalad: 90
waterhemp; [8]
  Plant response rating (0 to 100), Waterhemp: 75
waterhemp; [9]
  Waterhemp plant response rating: 75
waterhemp; [10]
  Plant response rating, Waterhemp: 80
waterhemp; Postemergence, 62 g ai/ha
  Plant response rating, Waterhemp: 85
johnsongrass; [8]
  Plant response rating (0 to 100), Johnsongrass: 5
johnsongrass; [9]
  Johnsongrass plant response rating: 5
johnsongrass; [10]
  Plant response rating, Johnsongrass: 10
johnsongrass; Postemergence, 62 g ai/ha
  Plant response rating, Johnsongrass: 5
Pigweed [4]; 125 g ai/ha
  Pigweed plant response rating (0 to 100 scale): 100
Pigweed [4]; [11]
  Pigweed plant response rating: 100
Large (Lg) crabgrass; [8]
  Plant response rating (0 to 100), Crabgrass, Large: 5
Large (Lg) crabgrass; [9]
  Crabgrass, Large plant response rating: 5
Large (Lg) crabgrass; [10]
  Plant response rating, Crabgrass, Large: 10
Large (Lg) crabgrass; Postemergence, 62 g ai/ha
  Plant response rating, Crabgrass, Large: 10

## Fc1cnc(Oc2cccc(C(F)F)c2-n2cc(C(F)(F)F)cn2)nc1 [Compound 164]
chickweed; [8]
  Plant response rating (0 to 100), Chickweed: 45
chickweed; [9]
  Chickweed plant response rating: 50
chickweed; [10]
  Plant response rating, Chickweed: 90
chickweed; Postemergence, 62 g ai/ha
  Plant response rating, Chickweed: 80
morningglory; 125 g ai/ha
  Morningglory plant response rating: 80
morningglory; 500 g ai/ha
  Plant response rating, Morningglory: 100
Barnyardgrass [1]; [8]
  Plant response rating (0 to 100), Barnyardgrass: 0
Barnyardgrass [1]; [9]
  Barnyardgrass plant response rating: 0
Barnyardgrass [1]; [10]
  Plant response rating, Barnyardgrass: 5
Barnyardgrass [1]; Postemergence, 62 g ai/ha
  Plant response rating, Barnyardgrass: 5
Pigweed [2]; 125 g ai/ha
  Pigweed plant response rating: 100
Pigweed [2]; 500 g ai/ha
  Plant response rating, Pigweed: 100
Oilseed rape; [8]
  Plant response rating (0 to 100), Oilseed Rape: 10
Oilseed rape; [9]
  Oilseed Rape plant response rating: 10
Oilseed rape; [10]
  Plant response rating, Oilseed Rape: 60
Oilseed rape; Postemergence, 62 g ai/ha
  Plant response rating, Oilseed Rape: 55
wheat, winter; [8]
  Plant response rating (0 to 100), Wheat: 0
wheat, winter; [9]
  Wheat plant response rating: 0
wheat, winter; [10]
  Plant response rating, Wheat: 0
wheat, winter; Postemergence, 62 g ai/ha
  Plant response rating, Wheat: 0
corn; [8]
  Plant response rating (0 to 100), Corn: 0
corn; [9]
  Corn plant response rating: 5
corn; [10]
  Plant response rating, Corn: 5
corn; Postemergence, 62 g ai/ha
  Plant response rating, Corn: 5
sedge, umbrella
  Plant response rating, Sedge, Umbrella: 90
Barnyardgrass [3]
  Plant response rating, Barnyardgrass: 20
velvetleaf; 125 g ai/ha
  Velvetleaf plant response rating (0 to 100 scale): 100
velvetleaf; [11]
  Velvetleaf plant response rating: 100
Heteranthera limosa
  Plant response rating, Ducksalad: 100
waterhemp; [8]
  Plant response rating (0 to 100), Waterhemp: 50
waterhemp; [9]
  Waterhemp plant response rating: 45
waterhemp; [10]
  Plant response rating, Waterhemp: 75
waterhemp; Postemergence, 62 g ai/ha
  Plant response rating, Waterhemp: 65
johnsongrass; [8]
  Plant response rating (0 to 100), Johnsongrass: 0
johnsongrass; [9]
  Johnsongrass plant response rating: 0
johnsongrass; [10]
  Plant response rating, Johnsongrass: 10
johnsongrass; Postemergence, 62 g ai/ha
  Plant response rating, Johnsongrass: 5
Pigweed [4]; 125 g ai/ha
  Pigweed plant response rating (0 to 100 scale): 100
Pigweed [4]; [11]
  Pigweed plant response rating: 100
Large (Lg) crabgrass; [8]
  Plant response rating (0 to 100), Crabgrass, Large: 5
Large (Lg) crabgrass; [9]
  Crabgrass, Large plant response rating: 5
Large (Lg) crabgrass; [10]
  Plant response rating, Crabgrass, Large: 10
Large (Lg) crabgrass; Postemergence, 62 g ai/ha
  Plant response rating, Crabgrass, Large: 5
